Results from patent US20200216463A1, “THAILANSTATIN ANALOGS” (priority 2017, published 2020).

Assays:
PANC 10.05 = experiment: In vitro cytotoxicity on pancreatic cancer cell line (Example 12); format: cell-based, human
Method: (§1) Various cancer cell lines were obtained from the American Type Culture Collection (ATCC)). The cells were cultured in a humidified 5% CO2 incubator in a media consisting of RPMI 1640, L-glutamine, and 10% FBS. The cells were passaged as needed using standard tissue culture techniques. The cells were harvested and plated out into 96-well tissue culture treated plates at a density of 5000 cells per well. After allowing the cells to equilibrate for ˜24 hr in a humidified 5% CO2 incubator, the cells were treated with the test compounds at the indicated concentrations. The cells were exposed to the test compounds for three days with no media change. After the treatment period, CellTiter-Glo) Luminescent Cell Viability Assay reagent solution (Promega, Inc., Madison, Wis.; Cat. # G7573) was introduced to each well. The Cell TiterGlo-containing plates were then read on a SpectroMax® iD3 Multi-Mode Microplate reader (Molecular Devices, LLC, San Jose, Calif.). The degree of luminescence was dictated by the abundance of live cells.

PANC 05.04 = experiment: as above; format: cell-based, human
Method: as §1

HCT 116 cells = experiment: In vitro cytotoxicity, CellTiter-Glo, 72 h (Example 11); format: cell-based; conditions: Homo sapiens, HCT-116, 72 h
Method: Alternatively, the in vitro cytotoxicity of the compounds of the invention may be measured as described in this example. 180 μl of HCT 116 cells (ATCC, Cat # CCL-247) in McCoy's 5a Medium Modified (Sigma-Aldrich), St. Louis, Mo.)+10% fetal bovine serum were seeded at a density of 5,000 cells/well in a white opaque 96-well plate and incubated for 24 hours at […] in a 5% CO2 incubator. Twenty-four hours post cell seeding, 20 μl of 10× test compounds were diluted such that the final concentrations of the test compounds were in μM concentration. Half log dilutions were used, starting from 10 μM through 0.0001 μM. Puromycin and untreated cells were used as […]. The cells were incubated with the compounds for 72 hours at […] in a 5% CO2 incubator. After 72 hrs, 100 μl/well of CellTiter-Glo® Luminescent Cell Viability Assay reagent (Promega, Inc., Madison, Wis.; Cat # G7573) was added to the plates and incubated at room temperature for 30 minutes. The luminescence signals were captured using EnVision 2105 Multimode Plate Reader (PerkinElmer, Waltham, Mass.). The data were analyzed using non-linear regression curve fit (sigmoidal dose response) in GraphPad Prism software (GraphPad Software, La Jolla, Calif.) by plotting the concentration of drug on the X-axis and the mean % inhibition values on the Y-axis.

Structure (SMILES) | IC50 (PANC 10.05) [nM] | IC50 (PANC 05.04) [nM] | IC50 (HCT 116 cells) [nM]
CC(=O)O[C@@H](C)/C=C\C(=O)N[C@@H]1C[C@H](C)[C@H](C/C=C(C)/C=C/[C@H]2O[C@H](CC(=O)O)C[C@@]3(CO3)[C@@H]2O)O[C@@H]1C [Thailanstatin A] | 4 | 3 | –
COC(=O)C[C@@H]1C[C@@]2(CO2)[C@H](O)[C@@H](/C=C/C(C)=C/C[C@@H]2O[C@H](C)[C@H](NC(=O)/C=C\C(C)c3cc(OC)no3)C[C@@H]2C)O1 (stereo partly drawn) [Compound 5, Methyl 2-((3R, 5S, 7R, 8R)-8-hydroxy-7-((1E, 3E)-5-((2S, 3S, 5R, 6R)-5-((Z)-4-(3-methoxyisoxazol-5-yl)pent-2-enamido)-3,6-dimethyltetrahydro-2H-pyran-2-yl)-3-methylpenta-1,3-dienyl)-1,6-dioxaspiro[2.5]octan-5-yl)acetate] | – | – | 310
